# Measurements published in US20250212873A1, “VOLATILE HDAC INHIBITORS FOR THERAPEUTIC AND PLANT APPLICATIONS” (The Regents of the University of California, priority 2022, published 2025).
# Columns and labels:
# [1] = system: PC3 Cancer cell line; assay: Cancer cell viability assay, PC3; assay type: cell-based
# Method: (§1) Cells were maintained in a 37° C. incubator with 5% CO2 throughout the experiment. Compound stocks were dissolved in 10% DMSO, but final concentrations were made fresh in complete media as needed. 10% DMSO solvent was used as control in complete media. Cells were seeded onto 12-well plates and allowed 12-24 hours until treatment began to allow cells to adhere to wells. This was followed by minimum 5-day treatment of compounds, changing the media with treatment every 48 hours. Cell lines A549, PC3, and SK-MEL-5 were seeded at 8000 cells/well which would provide 80-100% confluency after 6-day growth. SH-SY5Y was seeded at 8000 cells/well then 16,000 cells/well due to slower growth and given at least 10 days for sufficient growth. After allotted growth times, cell counts were performed via Countess™ automated cell counter. All assays were completed with a minimum of triplicate replicates for all conditions and analyzed through GraphPad Prism One-way ANOVA for significance.
# [2] = system: A549 Cancer cell line; assay: Cancer cell viability assay, A549; assay type: cell-based, human
# Method: as §1
# [3] = system: SK-MEL-5 Cancer cell line; assay: Cancer cell viability assay, SK-MEL-5; assay type: cell-based; details: triplicates
# Method: as §1
# [4] = system: Arabidopsis thaliana roots; assay: RNA-Seq of roots of diacetyl vapor exposed Arabidopsis seedlings; assay type: in vivo
# Method: In order to understand the molecular changes occurring with the volatile exposure and possibly underlying this developmental phenotype, an RNA-Seq analysis of the roots in diacetyl exposed vs control was performed. A large number of differentially expressed genes (DEGs) was found in the roots of the diacetyl vapor exposed Arabidopsis. 5197 differentially expressed genes (DEGs) (false discovery rate, FDR<0.05) were identified in the root transcriptome of diacetyl-exposed seedlings compared to control.
# A. thaliana plants (Col-0) were grown in an Agar medium were synchronized to germinate using pre-treatment in cold. Exposure experiments were started using plants the plates when they were 11 days old and placed in a 10-gallon glass aquarium as a chamber along with a petri dish containing 1 ml of chemical dissolved in PO or PO alone were placed at the other side of the container. After the desired exposure, the roots were separated, and a Trizol-based RNA isolation was carried out as above. Two biological replicates were performed for each condition, with an average of 68,355,820 reads/replicate, with an average of 95% mapped. Multiplexed libraries were made from total RNA input using the Illumina TruSeq RNA sample preparation kit (v2) and 50 bps single-end sequencing was done using the NextSeq500.
# [5] = system: Class I and Class II HDACs; assay: In vitro assays with purified human Class I and II HDACs (panel statements); assay type: biochemical; details: 15 mM in 1% DMSO; HDAC 1, 3, 4 and 6
# Method: Presented are data for selected compounds that act as Histone deacetylase inhibitors in vitro or HDAC inhibitors. 26 compounds were screened against purified human HDACs.
# HDAC activity of class I HDACs (HDAC1 and 3) was measured with the fluorometric HDAC Activity Assay kit: HDAC1 (10011563, Cayman Chemical, Ann Arbor, MI) and HDAC3 (50073 BPS Bioscience, San Diego, CA), according to the manufacturer's instructions. HDAC activity of class II HDACs (HDAC4 and HDAC6) was measured with the fluorometric HDAC Activity Assay kit: HDAC4, […] (50064 and 50076, BPS Bioscience, San Diego, CA), according to the manufacturer's instructions. All compounds were tested in single dose duplicate mode at 15 mM concentrations in 1% DMSO, based on the IC50 of 2,3-butanedione established in earlier work. Due to interference, concentrations of >30 mM were not used in the IC50 calculation. To account for any interference at lower concentrations, all baseline measurements of blank wells (no HDAC enzyme) were performed and subtracted with the various concentrations of 2,3-butanedione.
# Diacetyl and 3 structurally related VOCs were evaluated using in vitro assay kits for measuring activity of four purified HDACs. Of the four VOCs), each has a different functional group, two are natural in origin, previously detected from microbes that are known to be present in soil (M. C. Lemfack et al., Nucleic Acids Res 46, D1261-D1265 (2018); and R. H. Cagan, W. N. Zeiger, Proc. Nat. Acad. Sci. U.S.A. 75, 4679-4683 (1978)) and two that are not (α-angelica lactone and ethyl pyruvate). […] All 4 VOCs inhibited both Class I HDACs (L. L. Walling, The Myriad Plant Responses to Herbivores. J Plant Growth Regul 19, 195-216 (2000); and M. Heil, R. Karban, Trends Ecol Evol 25, 137-144 (2010)) and the Class II HDAC6 with differences in degree (FIG. 2A,B).
compound,measurement,setting,value
"CC(=O)C(C)=O [2,3-butanedione]","inhibition of prostate cancer (PC3) cell line, summary",[1],has potential in inhibiting
same,"changes in proliferation, PC3","[1]; 33 uM, triplicates",No Significant changes in proliferations
same,"changes in proliferation, A549","[2]; 100 mM treatment, triplicates",No significant changes in proliferations
same,"inhibition of cell growth, A549",[2]; 33 micro-molar,may be some A549 inhibition
same,"changes in proliferation, SK-MEL-5",[3]; 33 uM,No significant changes in proliferations
same,"changes in proliferation, SK-MEL-5",[3]; 100 uM,No significant changes in proliferations
same,differentially expressed genes (DEGs) in the root transcriptome,"[4]; 1% (v/v) headspace, 7 days, FDR<0.05",5197 genes
same,significantly down-regulated genes in roots,"[4]; log2 fold-change<-1, FDR<0.05",2572 genes
same,significantly up-regulated genes in roots,"[4]; log2 fold-change>1, FDR<0.05",2625 genes
same,HDAC inhibition against Class I and Class II HDACs,[5],inhibits both class 1 and class 2 HDACs
